Test results: patent publication US5914329A, “Dimesylate salts of neuropeptide Y ligands” (Pfizer Inc., priority 1997, dated 1999)
Counter-ions that a name gives are not always drawn.

Columns and labels:
[1] = Aqueous solubility of salts
[2] = Chemical stability; type: physicochemical
[3] = Bioavailability (species not stated); conditions: in words
[4] = Hygroscopicity evaluation at high humidities; type: physicochemical; conditions: humidities below 90%
[5] = Bioavailability in dogs

For CCOc1cccc(C2(N3CCN(c4ccccc4)CC3)CCC(C)CC2)c1 (stereo not drawn) [fumarate salt, cis-1-(3-ethoxyphenyl)-1-(4-phenylpiperazin-1-yl)-4-methyl-cyclohexane, reference compound], the solubility ([1]; water, solubility in water, in water) was 0.04 mg/mL.

With CCOc1cccc(C2(N3CCN(c4ccccc4)CC3)CCC(C)CC2)c1 (stereo not drawn) [compound I, dimesylate salt of cis-1-(3-ethoxyphenyl)-1-(4-phenylpiperazin-1-yl)-4-methyl-cyclohexane] the stability ([2]; in words) was “good”, the solubility ([1]; solubility, dimesylate salt, medium not stated) was 31 mg/mL and the bioavailability [3] was “good”.

With CCOc1cccc(C2(N3CCN(c4ccccc4)CC3)CCC(C)CC2)c1 (stereo not drawn) [form A, Dimesylate salt of cis-1-(3-ethoxyphenyl)-1-(4-phenylpiperazin-1-yl)-4-methylcyclohexane] the Chemical stability ([2]; 40° C. in 75% RH) was “no detectable degradation”, the Chemical stability ([2]; 70° C., at ambient humidity) was “no detectable degradation” and the Chemical stability ([2]; light box under fluorescent light) was “no detectable degradation”. For the same compound, the hygroscopicity [4] was “non-hygroscopic” and the solubility ([1]; water, Aqueous solubility, isolated form A of the dimesylate salt) was 31 mg/mL.

For CCOc1cccc(C2(N3CCN(c4ccccc4)CC3)CCC(C)CC2)c1 (stereo not drawn) [dihydrochloride, cis-1-(3-ethoxyphenyl)-1-(4-phenylpiperazin-1-yl)-4-methyl-cyclohexane, reference compound], the “stability in the solid state” value ([2]; solid state, in words) was “unstable”, the bioavailability in dogs [5] was 75% and the solubility ([1]; water, water solubility) was 1 mg/mL.
